Assay results taken from patent US10793598B2, “GrB-EHITSN inhibitory peptides” (Rush University Medical Center, priority 2014, dated 2020).
No end group written: not given here.

Experiments:
phospho-p38 = assay: WB of cell lysates using phospho (p)-p38 and p38 Abs; assay type: cell-based; conditions: GrB-EHITSN-transfected ECs, exposure for 24 h
Protocol: (§1) (c), using phospho (p)-p38 and p38 Abs. […] C. […] Bar: 50 μm. Inset c1. ECCtrl (a) and myc-GrB-EHITSN-ECs (b) lysates resolved on SDS PAGE and transferred to nitrocellulose membranes were overlaid with the PenNFP-FITC.
(§2) ECs stably transfected with the myc-GrB-EHITSN [selected based on neomycin-resistance], were treated with the PenNPF-FITC peptide to address whether inhibition of GrB-EHITSN ameliorates EC proliferation. […] A growth curve was generated to relate the OD^570 values to the cell number per well. […] Inset c1. ECCtrl (a) and myc-GrB-EHITSN-ECs (b) lysates resolved on SDS PAGE and transferred to nitrocellulose membranes were overlaid with the PenNFP-FITC.

ECs = assay: Fluorescence microscopy of peptide internalization; assay type: cell-based; conditions: 12.5 μM PenNPF-FITC
Protocol: (§3) FIGS. 1A-1C illustrate the effect of the GrB-EHITSN inhibitory peptide on ECs. A. MTT assay applied on ECCtrl, myc-GrB-EHITSN-transfected ECs and myc-GrB-EHITSN-transfected ECs exposed to 12.5 μM PenNFP-FITC peptide for 1 h, 37° C.; p<0.05; WB of cell lysates (inset a1) of ECCtrl (a), myc-GrB-EHITSN-ECs (b) and myc-GrB-EHITSN-ECs+12.5 μM PenNPF for 1 h, 37° C. (c), using phospho (p)-p38 and p38 Abs. B. Quantification of EC proliferation: ECCtrl (a), myc-GrB-EHITSN-ECs (b), myc-GrB-EHITSN-ECs+12.5 μM PenNPF (c), myc-GrB-EHITSN-ECs+12.5 μM Pen-AAA (d), myc-GrB-EHITSN-ECs+12.5 μM Pen (e), myc-GrB-EHITSN-ECs+12.5 μM NPF (f), and myc-GrB-EHITSN-ECs+12.5 μM scrambled penNPF, (g). Data in A and B are mean±SEM of 3 independent experiments performed in triplicates. *p<0.05 vs. ECCtrl. C. Fluorescence microscopy of ECs exposed to 12.5 μM PenNPF-FITC, fixed and mounted on glass slides with Prolong Antifade with DAPI. Bar: 50 μm. Inset c1. ECCtrl (a) and myc-GrB-EHITSN-ECs (b) lysates resolved on SDS PAGE and transferred to nitrocellulose membranes were overlaid with the PenNFP-FITC.
(§4) ECs stably transfected with the myc-GrB-EHITSN [selected based on neomycin-resistance], were treated with the PenNPF-FITC peptide to address whether inhibition of GrB-EHITSN ameliorates EC proliferation. […] A growth curve was generated to relate the OD^570 values to the cell number per well. […]

[1] = system: myc-GrB-EHITSN-transfected ECs; assay: MTT assay of EC proliferation / cell growth; assay type: cell-based; conditions: for cell growth / EC proliferative potential (MTT): myc-GrB-EHITSN-transfected ECs, 12.5 μM peptide, 1 h, 37° C., vs transfected ECs not exposed
Protocol: as §1, §2

myc-GrB-EHITSN = biological target: T1, myc-GrB-EHITSN (Homo sapiens, UniProt Q15811); assay: Overlay of lysates on nitrocellulose membranes with FITC peptide, detected by FITC Ab; assay type: binding; conditions: overlay on myc-GrB-EHITSN-EC lysates; n=3
T1 construct: with a conserved cleavage site (IDQD^271GK) throughout the evolution; expressed in transfected cells; host or cells: endothelial cells (ECs), stably transfected, neomycin-selected; lysates resolved by SDS-PAGE and blotted
T1 sequence (Q15811 1-271): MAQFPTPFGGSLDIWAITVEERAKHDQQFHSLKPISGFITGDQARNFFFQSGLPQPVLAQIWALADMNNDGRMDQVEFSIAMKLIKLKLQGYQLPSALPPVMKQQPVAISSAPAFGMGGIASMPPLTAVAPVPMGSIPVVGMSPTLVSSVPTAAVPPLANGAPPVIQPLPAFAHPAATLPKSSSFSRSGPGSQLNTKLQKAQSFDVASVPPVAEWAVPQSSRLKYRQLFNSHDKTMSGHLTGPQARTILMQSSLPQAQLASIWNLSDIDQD
Protocol: as §3, §4

myc-GrB-EHITSN-mice = assay: RVSP measured by right heart catheterization; assay type: in vivo, mouse
Protocol: FIGS. 3A-3D illustrate representative H&E staining of lung sections of myc-GrB-EHITSN-KDITSN mice (A, a1, B) and RVSP measurements (C) in wt-(bar a), empty-Lipo (bar b) and myc-GrB-EHITSN-mice (bar c), 10 days of GrB-EHITSN treatment. […] Data are mean±SEM. For morphological assessment of peptide internalization (panel D), mice were sacrificed 1 h after injection. Bars: 50 μm (A, B); 20 μm (a1, D). n=3.

BrdU+ ECs = assay: BrdU cell proliferation assay in mouse lungs; assay type: in vivo; conditions: myc-GrB-EHITSN plasmid via cationic liposomes into mouse lungs, day 6 of treatment
Excerpt: FIGS. 2A-2B illustrate the proliferative effect of the GrB-EHITSN fragment on EC in vivo. Wt-mice (B) and myc-GrB-EHITSN-treated mice, day 5 of treatment (A) were subjected to BrdU proliferation assay. Data are mean±SEM. All data are representative of 3 mice in each group. Bars: 20 μm.
(§5) GrB-EHITSN has EC proliferative potential in vivo. To address the proliferative potential of GrB-EHITSN in vivo, the myc-GrB-EHITSN DNA plasmid was delivered via cationic liposomes into mouse lungs. (Knezevic, 2011). […] For continuous and efficient long-term expression of myc-GrB-EHITSN, mice were injected repeatedly every 48 h, for 9 days (Bardita, 2013). Actin was used as loading control. In parallel studies, myc-GrB-EHITSN-transduced mice (FIG. 2B) and wt-controls (FIG. 2A) were subjected to BrdU cell proliferation and morphometric analyses, at day 6 of GrB-EHITSN treatment (Bardita, 2013). BrdU was injected intra-peritoneally every 24 h, for 2 consecutive days (day 4 and 5 of myc-GrB-EHITSN treatment). Incorporated BrdU was detected via BrdU-FITC Ab; CD31 Ab/AlexaFluor 594 was used for positive identification of ECs. For morphological assessment of peptide internalization mice were sacrificed 1 h after injection. […] Data in FIG. 2A-B indicate that the GrB-EHITSN has EC proliferative in vivo.

[2] = WB with myc Ab on lung lysates (expression of the encoded protein); assay type: in vivo, mouse; conditions: after liposomal plasmid delivery; efficiently expressed at 48 h post-delivery
Protocol: as §5

GrB-EHITSN-mice = assay: Fulton's index (RV hypertrophy); assay type: in vivo, mouse; conditions: means±SEM, p<0.05 vs wt-mice
Excerpt: GrB-EHITSN increases pulmonary pressure in mouse lungs. […] The Fulton's index (RV/left ventricle plus septum), indicative of RV hypertrophy, assessed as in (Qin, 2012) was higher in GrB-EHITSN-mice compared to wt-mice (0.31±0.03 vs. 0.22±0.01; means±SEM; p<0.05).

Q: With “PenNPF-FITC: PenNPF inhibitory peptide carrying a FITC-tag (RQIKIWFQNRRMKWKKPTGSSSTNPFL; also: FITC tag, site not given here)” as the molecule, how does the “phospho-p38 / p38 activation” value (phospho-p38) read?
A: Its value is “phospho-p38 inhibition”.

Q: And the “internalization by ECs (fluorescent imaging)” value (ECs)?
A: The value was “efficient internalization”.

Q: And the “decrease in the number of myc-GrB-EHITSN-transfected cells” value ([1]; calculated on 3 successive points of growth curve, vs transfected ECs not exposed to peptide)?
A: Its value is “greater than 35%”.

Q: And the “cell growth / EC proliferative potential (MTT)” value [1]?
A: The value was “inhibits cell growth”.

Q: What about the OD570 values ([1]; wells with myc-GrB-EHITSN-transfected cells exposed to peptide) of the same molecule?
A: The OD570 values was “close to the OD^570 values of control ECs”.

Q: And the “interaction with myc-GrB-EHITSN” value (myc-GrB-EHITSN)?
A: Its value is “direct interaction”.

Q: Which results are given for “RQIKIWFQNRRMKWKKPTGSSSTNPFL (PenNPF fusion peptide)”?
A: phospho-p38 / p38 activation (phospho-p38): decreases the ECs proliferative potential of GrB-EHITSN and p38 activation; cell growth / EC proliferative potential (MTT) [1]: decreases the ECs proliferative potential of GrB-EHITSN; decrease in RVSP (myc-GrB-EHITSN-mice; myc-GrB-EHITSN-mice, 50 μg PenNPF/mouse): 20%

B1: myc-GrB-EHITSN: myc-tagged granzyme B cleavage fragment of intersectin-1s (two EH domains), expressed from DNA plasmid delivered via cationic liposomes (protein)
chain: T1 sequence (Q15811 1-271)
modifications: left off: small tags and cut ends
notes: myc-tagged granzyme B cleavage fragment of intersectin-1s (two EH domains), expressed from DNA plasmid delivered via cationic liposomes
Q: For B1, which “increase in BrdU+ ECs relative to controls” value (BrdU+ ECs) is on record?
A: The value was “more than 1.6 fold”.

Q: What about the “lifetime of encoded protein in mouse lung” value [2] of the same molecule?
A: Its value is “about 72 h”.

Q: And the “Fulton's index (RV/left ventricle plus septum)” value (GrB-EHITSN-mice)?
A: The value was 0.31±0.03.

Q: What about the “increase in RVSP compared to wt- and empty liposomes-treated mice” value (myc-GrB-EHITSN-mice; day 10-post initial GrB-EHITSN delivery) of the same molecule?
A: The value was 1.36 fold.
